One test deals with LA-Taq DNA Polymerase. In words: PCR with LA-Taq DNA Polymerase in the presence of cationic complexes (GC-rich region, long chain). In kind it is biochemical. The note with it: for DNA synthesis reaction when amplifying GC-rich region: human ApoE genomic region 441 bp, GC about 74%, 100 ng HT29 genomic DNA, complex 50, 100, 200 or 500 μM, no amplification without addition. As to the method:
The effects on addition of the cationic complex were examined when PCR amplification was carried out with a GC-rich region as a target. As the cationic complex, there was used tris(ethylenediamine)cobalt (III) chloride, or tris(ethylenediamine)rhodium (III) trichloride•trihydrate. Template DNA was prepared from HT29 cells by conventional method. Amplified region and amplified chain lengths were human ApoE genomic region and 441 bp. The GC content of this amplified region was about 74%. As DNA polymerase, TaKaRa LA-Taq DNA Polymerase (manufactured by Takara Shuzo Co., Ltd., hereinafter referred to as “LA-Taq DNA Polymerase”) was used. The composition for a reaction mixture is shown below.
25 μl of 2×GC buffer I (manufactured by Takara Shuzo Co., Ltd.), 0.4 mM each of dATP, dCTP, dGTP and dTTP, 2.5 U of LA-Taq DNA Polymerase, 100 ng of HT29 cells genomic region, and 20 pmol each of primers ApoE-1 and ApoE-2 (a final volume being 50 μl). Each of the above cationic complex was added to the above reaction mixture so as to have a final concentration of 50, 100, 200, or 500 μM, respectively.
The reaction was carried out in Fast mode by using TaKaRa PCR Thermal Cycler Personal. As regarding the reaction conditions, the reaction in 30 cycles was carried out, wherein one cycle of reaction comprises a process consisting of 98° C., 5 seconds—64° C., 10 seconds—72° C., 40 seconds. On the other hand, as a control, the reaction for one without addition of the cationic complex was carried out in the same manner.
After the termination of the reaction, 5 μl of each of the resulting reaction mixtures was subjected to electrophoresis on 2% agarose gel containing ethidium bromide in an amount of 0.00005%. The gel after the electrophoresis was subjected to ultraviolet irradiation to visualize the band ascribed to the amplified product, whereby an amplified fragment was confirmed.
The effects on the amplified chain length when adding a cationic complex were examined. As the cationic complex, there was used hexaamminecobalt (III) trichloride. […]

In another test the test system is Pyrobest DNA Polymerase. In words: PCR with Pyrobest DNA Polymerase in the presence of cationic complexes. In kind it is biochemical, Pyrococcus sp. The conditions noted are these: for Amount of amplified DNA relative to No Addition (=1), Pyrobest: 100 pg E. coli JM109 genomic DNA, primers Eco1/Eco2, 30 cycles 98°C 5 s–68°C 2 min, FM-BIO 100.

For `NCCN.NCCN.NCCN.O.O.O.[Cl][Rh]([Cl])[Cl]` [[Rh(H2NCH2CH2NH2)3]Cl3, tris(ethylenediamine)rhodium (III) trichloride•trihydrate], in the test with LA-Taq DNA Polymerase, the “DNA synthesis reaction when amplifying GC-rich region” value is “enhanced as the concentration of added complex was increased as 100 μM, 200 μM and 500 μM”. The “Amount of amplified DNA relative to No Addition (=1), Pyrobest” value with Pyrobest DNA Polymerase (complex 50 μM) amounted to 1.4; with Pyrobest DNA Polymerase (complex 100 μM), 1.7; in the test on Pyrobest DNA Polymerase (complex 200 μM) it was 2.0.

As to `N.N.N.N.N.N.[Cl-].[Cl-].[Cl-].[Co+3]` [[Co(NH3)6]Cl3, hexaamminecobalt (III) chloride], the “Amplification of desired long DNA fragment” value in the test on LA-Taq DNA Polymerase (LA-Taq, 1 ng λDNA, primers λL36/λR485 (48.5 kb), 30 cycles 98°C 10 s–68°C 15 min, 50 μM, only slight without addition) is on record as “excellently amplified”; with Pyrobest DNA Polymerase (Pyrobest, 10 ng E. coli genome, primers Eco1/Eco5 (10 kb), 30 cycles 98°C 5 s–68°C 10 min, 50 μM or 100 μM, only slight without addition), “excellently amplified”. Also, the “Amount of amplified DNA relative to No Addition (=1), Pyrobest” value in the test on Pyrobest DNA Polymerase (complex 50 μM), in the test with Pyrobest DNA Polymerase (complex 100 μM) and in the test on Pyrobest DNA Polymerase (complex 200 μM) was 2.1 each time. For the same compound, the “Primer amount with which a fragment can still be amplified” value in the test on Pyrobest DNA Polymerase (Pyrobest, 100 μM complex, primers 2–20 pmol tested, no amplification without addition) is listed as 3.3 pmol. Also, the “Amount of template DNA at which amplification was still possible” value with Pyrobest DNA Polymerase (Pyrobest, 100 μM complex, templates 1 pg–1 ng tested, no amplification at 1 pg without addition) is recorded as 1 pg. In addition, the “Amplification in low-magnesium reaction mixture” value with Pyrobest DNA Polymerase (Pyrobest, 0.5 mM magnesium chloride (usual 1 mM), 100 μM complex, no amplification without addition) is given as “allowed to amplify”.

In the case of `NCCN.NCCN.NCCN.[Cl-].[Cl-].[Cl-].[Co+3]` [[Co(H2NCH2CH2NH2)3]Cl3, tris(ethylenediamine)cobalt (III) chloride], in the test on LA-Taq DNA Polymerase, the “DNA synthesis reaction when amplifying GC-rich region” value is listed as “enhanced as the concentration of added complex was increased”. Also, the “Amount of amplified DNA relative to No Addition (=1), Pyrobest” value in the test with Pyrobest DNA Polymerase (complex 50 μM) was determined as 2.1; with Pyrobest DNA Polymerase (complex 100 μM), 2.2.
